Measurements reported in the supplement of paper PMC13380429.

Assays:
Details in all cases: 72 h
[1] = system: HepG2; experiment: relative viability EC50 (midpoint between 100% and the lowest measured viability); higher = less toxic
[2] = system: U2OS; experiment: as above
[3] = system: Vero E6; experiment: as above
[4] = system: Caco-2; experiment: as above
[5] = system: Calu-3; experiment: as above
[6] = system: HepG2; experiment: drug sensitivity score (DSS) for viability; higher = more toxic; extreme values may be limits of the assay
[7] = system: U2OS; experiment: as above
[8] = system: Vero E6; experiment: as above
[9] = system: Caco-2; experiment: as above
[10] = system: Calu-3; experiment: as above
[11] = system: HepG2; experiment: cell viability relative to DMSO; higher = less toxic
[12] = system: U2OS; experiment: as above
[13] = system: Vero E6; experiment: as above
[14] = system: Caco-2; experiment: as above
[15] = system: Calu-3; experiment: as above

SMILES | relative viability EC50 [1] | relative viability EC50 [2] | relative viability EC50 [3] | relative viability EC50 [4] | relative viability EC50 [5] | drug sensitivity score [6] | drug sensitivity score [7] | drug sensitivity score [8] | drug sensitivity score [9] | drug sensitivity score [10] | cell viability ([11]; 1 nM) | cell viability ([11]; 10 nM) | cell viability ([11]; 100 nM) | cell viability ([11]; 1000 nM) | cell viability ([11]; 10000 nM) | cell viability ([12]; 1 nM) | cell viability ([12]; 10 nM) | cell viability ([12]; 100 nM) | cell viability ([12]; 1000 nM) | cell viability ([12]; 10000 nM) | cell viability ([13]; 1 nM) | cell viability ([13]; 10 nM) | cell viability ([13]; 100 nM) | cell viability ([13]; 1000 nM) | cell viability ([13]; 10000 nM) | cell viability ([14]; 1 nM) | cell viability ([14]; 10 nM) | cell viability ([14]; 100 nM) | cell viability ([14]; 1000 nM) | cell viability ([14]; 10000 nM) | cell viability ([15]; 1 nM) | cell viability ([15]; 10 nM) | cell viability ([15]; 100 nM) | cell viability ([15]; 1000 nM) | cell viability ([15]; 10000 nM)
CC(C)[C@@H]1C(=O)N(S(C)(=O)=O)[C@@H]2CCN(C(=O)/C=C/CN3CCCCC3)[C@H]21 | > 10 µM | > 10 µM | > 10 µM | > 10 µM | > 10 µM | 0.1 | 0 | 0 | 0 | 0 | 92.2% | 92.6% | 104% | 104% | 85.3% | 101% | 98.8% | 103% | 99.1% | 101% | 97.2% | 102% | 93.4% | 98.6% | 91.4% | 110% | 94.3% | 94.4% | 97.6% | 94.4% | 95.9% | 95.4% | 102% | 103% | 100%
CC1(C)C(=O)N(c2ccc(C#N)c(C(F)(F)F)c2)C(=O)N1CCCCO | > 10 µM | > 10 µM | > 10 µM | > 10 µM | > 10 µM | 0 | 0 | 0 | 0.4 | 0 | 98.8% | 93.9% | 103% | 91.1% | 91.6% | 99.9% | 102% | 96.5% | 97.6% | 98.3% | 95.6% | 103% | 100% | 103% | 99.2% | 104% | 94.8% | 90.6% | 90.7% | 89.4% | 104% | 114% | 96% | 97.6% | 91.9%
CCCn1c(=O)c(C)cn2nc(N)nc12 | > 10 µM | > 10 µM | > 10 µM | > 10 µM | > 10 µM | 0 | 0 | 0 | 0 | 0 | 96.9% | 95% | 93.8% | 98.3% | 107% | 100% | 97.3% | 104% | 98.9% | 101% | 90.1% | 103% | 96% | 97.1% | 97.7% | 91.7% | 91.5% | 102% | 99.5% | 112% | 105% | 102% | 102% | 111% | 99%
NS(=O)(=O)NCCNc1nonc1/C(=N/O)Nc1ccc(F)c(Br)c1 | > 10 µM | > 10 µM | > 10 µM | > 10 µM | > 10 µM | 0 | 0 | 0 | 0 | 0 | 100% | 96% | 103% | 94.8% | 102% | 93.6% | 102% | 96.2% | 102% | 95% | 100% | 98.9% | 98.2% | 94.5% | 107% | 89.9% | 100% | 98% | 102% | 96.4% | 100% | 96.2% | 93.7% | 95% | 95.4%
O[C@@H]1[C@H](O)[C@@H](CCl)O[C@H]1n1cnc2c(NC3CC4CCC3C4)ncnc21 (mixture of isomers) [5'-chloro-5'-deoxy-ENBA-(+/-)] | > 10 µM | > 10 µM | > 10 µM | > 10 µM | > 10 µM | 0.2 | 0 | 0 | 0.4 | 0 | 96% | 99.6% | 96.2% | 99.5% | 85.4% | 104% | 100% | 99.3% | 104% | 97.6% | 96.7% | 97.2% | 94.3% | 91.9% | 91.5% | 98.8% | 99.6% | 99.2% | 97.2% | 86.1% | 99.1% | 98% | 93.3% | 94.8% | 90.2%
N[C@@H](Cc1ccc(Cl)cc1)C(=O)O (racemic) [fenclonine-(+/-)] | > 10 µM | > 10 µM | > 10 µM | > 10 µM | > 10 µM | 0 | 0 | 0 | 0 | 0 | 103% | 107% | 101% | 93.7% | 100% | 93.6% | 101% | 96.4% | 102% | 97.2% | 110% | 106% | 105% | 98.6% | 102% | 94% | 102% | 97.9% | 97.5% | 93.2% | 98.1% | 101% | 97.7% | 96.4% | 97.1%
O=C([O-])CN1CCN(CC(=O)[O-])CCN([C@H](CO)[C@H](O)CO)CCN(CC(=O)[O-])CC1.[Gd+3] (racemic) [gadobutrol] | > 10 µM | > 10 µM | > 10 µM | > 10 µM | > 10 µM | 0 | 0 | 0 | 0 | 0 | 97% | 99.2% | 101% | 91.8% | 100% | 99.6% | 113% | 100% | 104% | 106% | 100% | 105% | 96.8% | 99.4% | 107% | 107% | 96.2% | 95.5% | 98.8% | 104% | 96.2% | 104% | 109% | 109% | 98.4%
N[C@@H](C(=O)O)c1nn[nH]n1 (racemic) [tetrazol-5-yl-glycine-(RS)] | > 10 µM | > 10 µM | > 10 µM | > 10 µM | > 10 µM | 0 | 0 | 0 | 0 | 0.1 | 91% | 107% | 101% | 96.6% | 108% | 104% | 98.5% | 103% | 93.7% | 104% | 95% | 104% | 90.2% | 98.3% | 107% | 97.2% | 95.6% | 104% | 98% | 90.6% | 112% | 109% | 105% | 95.2% | 89.3%
O=C1Cc2c([nH]c3ccc(Br)cc23)-c2ncccc2N1 [1-azakenpaullone] | > 10 µM | > 10 µM | > 10 µM | > 10 µM | > 10 µM | 0 | 0 | 0 | 0 | 0 | 89.6% | 96.3% | 92.8% | 104% | 105% | 99.8% | 95.9% | 99.3% | 98.4% | 96.1% | 91.7% | 103% | 96.5% | 101% | 105% | 98.1% | 99.7% | 95.4% | 109% | 104% | 102% | 94.6% | 101% | 104% | 118%
COc1ccc2[nH]c(-c3ccccc3)c(CCNC(C)=O)c2c1 [2-phenylmelatonin] | > 10 µM | > 10 µM | > 10 µM | > 10 µM | > 10 µM | 0 | 0 | 0 | 0.6 | 0 | 104% | 99.5% | 101% | 101% | 105% | 102% | 101% | 97.6% | 105% | 98.1% | 101% | 99.9% | 106% | 98.8% | 93.7% | 98.8% | 105% | 93% | 98% | 82.6% | 96.5% | 94.9% | 99.3% | 106% | 102%
Cc1ccc(/C=C2/C(=O)C3(C)CCC2C3(C)C)cc1 (stereo not given) [3-(4-methylbenzylidene)camphor] | > 10 µM | > 10 µM | > 10 µM | > 10 µM | > 10 µM | 0 | 0 | 0 | 0 | 1.2 | 94.1% | 96% | 94.3% | 88.9% | 103% | 101% | 104% | 96.4% | 99.1% | 100% | 101% | 101% | 96.9% | 99.9% | 96.3% | 92.9% | 100% | 90% | 95.8% | 95.9% | 102% | 97.2% | 88.1% | 92.1% | 93.8%
O=C(c1cc(S(=O)(=O)Nc2ccccc2F)c(F)cc1Cl)N1CCN2CCC[C@@H]2C1 [ABT-639] | > 10 µM | > 10 µM | > 10 µM | > 10 µM | > 10 µM | 0 | 0 | 0 | 0 | 0 | 94.4% | 106% | 87.2% | 105% | 92.5% | 99.1% | 97.4% | 99% | 95.1% | 99.5% | 102% | 98.9% | 97.8% | 100% | 100% | 95.2% | 97.8% | 98.9% | 94.9% | 104% | 103% | 104% | 99.8% | 106% | 96.1%
Cc1ccc(S(=O)(=O)NC2c3ccccc3Oc3ccccc32)cc1 [AH-7614] | > 10 µM | > 10 µM | > 10 µM | > 10 µM | > 10 µM | 0 | 0 | 0 | 0 | 0 | 96.4% | 91.5% | 103% | 110% | 93% | 105% | 95.8% | 102% | 102% | 100% | 95.8% | 100% | 99.1% | 98% | 103% | 96.5% | 87.3% | 91.7% | 92.9% | 93.4% | 101% | 108% | 96.5% | 96.5% | 113%
Nc1ccn([C@@H]2O[C@@](CO)(CCl)[C@@H](O)[C@H]2F)c(=O)n1 [ALS-8112] | > 10 µM | > 10 µM | > 10 µM | > 10 µM | > 10 µM | 0.8 | 0 | 0 | 0 | 0 | 90.2% | 94.3% | 104% | 96.1% | 82.8% | 102% | 99.2% | 102% | 96.8% | 97.4% | 100% | 97.7% | 97% | 98.8% | 94.8% | 95.2% | 96.4% | 96.1% | 93.9% | 98.9% | 104% | 102% | 93.8% | 100% | 90.9%
